Article PMC2865264 (The Journal of Biological Chemistry, 2010)

T1: GST:PK50 (Trypanosoma brucei, UniProt Q26801)
T1 sequence (Q26801 1-437): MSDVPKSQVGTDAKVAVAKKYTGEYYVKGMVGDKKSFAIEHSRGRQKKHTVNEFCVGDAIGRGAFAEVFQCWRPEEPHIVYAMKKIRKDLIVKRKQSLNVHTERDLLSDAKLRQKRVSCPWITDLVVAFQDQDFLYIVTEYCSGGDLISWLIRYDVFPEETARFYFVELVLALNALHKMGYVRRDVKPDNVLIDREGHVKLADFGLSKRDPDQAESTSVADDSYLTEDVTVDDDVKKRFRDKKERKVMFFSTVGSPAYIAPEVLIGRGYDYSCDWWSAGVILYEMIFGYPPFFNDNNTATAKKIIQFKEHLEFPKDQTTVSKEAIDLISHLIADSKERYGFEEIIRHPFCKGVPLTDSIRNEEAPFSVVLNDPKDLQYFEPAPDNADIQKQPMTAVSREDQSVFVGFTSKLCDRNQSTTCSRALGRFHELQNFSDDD


Assays:
[1] = biological target: T1, GST:PK50; test: radiometric filter plate kinase assay, [gamma-33P]ATP, 10-point dilution; format: biochemical
[2] = biological target: GST:PK53 (Trypanosoma brucei, UniProt Q582J2, E440D); settings: ATP at its Km; peptide KKLNRTLSFAEPG; Tris-HCl pH 7.0, 1 mM MnCl2, 1% DMSO
[3] = substrate: Nc1ncnc2c1ncn2[C@@H]1O[C@H](COP(=O)(O)OP(=O)(O)OP(=O)(O)O)[C@@H](O)[C@H]1O; test: purified protein; settings: co-substrate peptide … varied, 15 nM enzyme, Tris-HCl pH 7.9, 3 mM MnCl2

| Molecule | IC50 [1] | IC50 [2] | Km [3] |
| --- | --- | --- | --- |
| CN[C@@H]1C[C@H]2O[C@@](C)([C@@H]1OC)n1c3ccccc3c3c4c(c5c6ccccc6n2c5c31)C(=O)NC4 [staurosporine] | 216 ± 47 nM | 4.6 ± 0.3 nM | – |
| GST:PK50 (Trypanosoma brucei) (protein) MSDVPKSQVGTDAKVAVAKKYTGEYYVKGMVGDKKSFAIEHSRGRQKKHTVNEFCVGDAIGRGAFAEVFQCWRPEEPHIVYAMKKIRKDLIVKRKQSLNVHTERDLLSDAKLRQKRVSCPWITDLVVAFQDQDFLYIVTEYCSGGDLISWLIRYDVFPEETARFYFVELVLALNALHKMGYVRRDVKPDNVLIDREGHVKLADFGLSKRDPDQAESTSVADDSYLTEDVTVDDDVKKRFRDKKERKVMFFSTVGSPAYIAPEVLIGRGYDYSCDWWSAGVILYEMIFGYPPFFNDNNTATAKKIIQFKEHLEFPKDQTTVSKEAIDLISHLIADSKERYGFEEIIRHPFCKGVPLTDSIRNEEAPFSVVLNDPKDLQYFEPAPDNADIQKQPMTAVSREDQSVFVGFTSKLCDRNQSTTCSRALGRFHELQNFSDDD | – | – | 25.7 ± 4.8 µM |
